Experimental data reported in article PMC10214526, “Semisynthetic LC3 Probes for Autophagy Pathways Reveal a Noncanonical LC3 Interacting Region Motif Crucial for the Enzymatic Activity of Human ATG3” (ACS Central Science, 2023).

Experiments:
ATG3 = test: Reaction (cross-linking) of Ubl activity-based probes with recombinant ATG3 and variants; format: biochemical, human; details: probe 15 μM, SDS-PAGE
Method: (§1) Figure 1 Modification of ATG3 with GABARAP ABPs depends on LIR^ATG3. a. Characterization of GABARAP activity-based probes, 1 and 2, obtained by hydrazide-acylation. Deconvoluted mass-spectrum (ESI) of GABARAP(ΔG116)–NHNH α-chloroacetyl 1. Expected mass 13707 Da. Deconvoluted mass-spectrum (ESI) of GABARAP(ΔG116)–NHNH methyl-fumarate 2. Expected mass 13743 Da. b. […] The reaction was allowed to proceed for 1 h and was analyzed by SDS-PAGE and Coomassie Blue staining. c. ColabFold-predicted structure of the protein-complex of ATG3 and GABARAP. Side-chain atoms are shown for the predicted LIR motif in ATG3 (90–112). d. Reaction of 2 (15 μM) with ATG3 variants C1, C0, and ΔLIR (15 μM). ATG3 C1 contains only active-site cysteine C264. ATG3 C0 contains no cysteines. ATG3 ΔLIR lacks amino acids 95–111. Reaction was allowed to proceed for 1 h and was analyzed by SDS-PAGE and Coomassie Blue staining. Full-gel images for b and d are available in the Supplementary Information.
We were intrigued by the cross-linking efficiency of 2 with ATG3 and sought to investigate the origin of this efficiency by generating a C1 variant of ATG3 that only contains the catalytic cysteine 264 and a corresponding C0 variant containing no cysteines. […] In general, the affinity of E2s for their cognate Ubls are quite low, as the thioester transfer from the E1 to the E2 enzyme is facilitated by additional interactions from the UFD domain of the E1 enzyme.[23] […]
Upon completion the solution was dialyzed against 25 mM
HEPES, 200 mM NaCl pH 7.2 at 4 °C. Cleaved intein was removed using gravity Ni-NTA purification.
The flow-through was collected and combined with resin washes. The combined fractions were dialyzed and further purified using ion exchange.
3.3. Generation of GABARAP and LC3A hydrazides from SUMO-GABARAP/LC3A-Mxe GyrA-
SUMO-GABARAP/LC3A-Mxe GyrA-His6 fusion after Ni-NTA purification was dialyzed against intein cleavage buffer (25 mM HEPES, 500 mM NaCl, 1 mM EDTA pH 7.2 at 4 °C). After dialysis hydrazine monohydrate (75 mM) and MESNa (10 mM) was added and the pH adjusted to 7.8. The solution was allowed to stand at room temperature and monitored using LC-MS analysis. Upon completion the solution was dialyzed against 25 mM HEPES, 500 mM NaCl pH 7.2 at 4 °C. SENP1 (1 wt%) was added to cleave the SUMO-tag. The cleaved intein was removed using gravity Ni-NTA purification. […]
dialyzed and further purified using cation exchange using a buffer 25 mM Tris pH 8.0 and a gradient of […] in the same buffer over 25 column volumes. The product fractions were pooled, concentrated, and stored at –80 °C until further use.
3.4. Synthesis of symmetrical anhydrides
The carboxylic acid was dissolved in CH2Cl2 (300 mM) and dicyclohexylcarbodiimide (0.5 eqiv) was added in one portion. The reaction was stirred under N2 for 18 h. The suspension was filtered and concentrated to ~10% of the initial volume. The solution was placed at 4 °C for 1 h and filtered again.
The filtrate was concentrated to obtain the symmetrical anhydride which was used without further purification. Anhydrides can be stored at –20 °C for weeks.
3.5. Reaction of modified Ubl probes with E2s
Ubl probes (15 μM) were mixed with E2s (15 μM) in PBS. The mixture was incubated at 37 °C in a water bath for 0.5-3 h. The reaction was quenched by addition of 2x Laemmli buffer and boiled at 95 °C for 5 min. Samples were resolved by SDS-PAGE (8-16%, Bio-Rad) and visualized by […]
Coomassie staining. […]

Ube2K = test: Reaction of Ubl probes with ubiquitin E2 Ube2K; format: biochemical; details: probe 15 μM, Ube2K 15 μM, 1 h, SDS-PAGE
Method: as §1, with “Full-gel images for b and d are available in the Supplementary Information.” left out
Farnung et al. Supplementary Information and monitored using LC-MS analysis. […]
SUMO-GABARAP/LC3A-Mxe GyrA-His6 fusion after Ni-NTA purification was dialyzed against intein cleavage buffer (25 mM HEPES, 500 mM NaCl, 1 mM EDTA pH 7.2 at 4 °C). […] The solution was allowed to stand at room temperature and monitored using LC-MS analysis. […]
Ubl probes (15 μM) were mixed with E2s (15 μM) in PBS. […] If required, gel bands were quantified by gel densitometry using ImageLab (Bio- […]

ATG3 C1 alanine variants = test: Alanine screen: cross-linking of probe 2 with ATG3 C1 alanine variants; format: biochemical, human; details: probe 2 15 μM, PBS, 37 °C, 30 min, n = 2
Method: Figure 4 Dissection of interactions between GABARAP and LIR^ATG3 by alanine scanning. GABARAP probe 2 (15 μM) was reacted with ATG3 C1 alanine variants (15 μM) for 30 min. Coomassie Blue stained SDS-PAGE gel showing modification of ATG3 C1 variants with GABARAP methyl fumarate. The indicated ATG3 residues were mutated to alanine. Cross-linking efficiency was estimated by gel densitometry and normalized to the reaction with ATG3 C1. Data are presented as average values ± s.d. n = 2 independent experiments. Full-gel images are available in the Supplementary Information.
Farnung et al. Supplementary Information
SDS-PAGE (8-16%, Bio-Rad) and visualized by Coomassie staining. Gel bands were quantified by gel densitometry using ImageLab (Bio-Rad).
ATG3 C1 (15 μM) was mixed with GABARAP methyl fumarate 2 (15 μM) in PBS, and the reaction mixture was incubated at 37 °C for 30 min. The reaction was quenched by addition of 2x Laemmli buffer and boiled at 95 °C for 5 min. Samples were resolved by SDS-PAGE (8-16%, Bio-Rad) and visualized by Coomassie staining. Gel bands were quantified by gel densitometry using ImageLab […]
3.9. Structure prediction […]
! ! ( )"% - ) ( $&, . "#*( *"&% % *! "#*( * &% %*( * +% ( ( + '( ))+( ! )&#+*"&%- )*("*+( * -"*! * % %*(" + *&& * "% (+ ' '*" ! […]

GABARAP(ΔG116)–NHNH methyl-fumarate [compound 2]
Reaction with ATG3 wt (ATG3; ATG3 15 μM, 1 h, Coomassie Blue): reacted with ATG3 efficiently leading to the formation of multiple ATG3–GABARAP bands
Reaction with ATG3 C0 (ATG3; ATG3 C0 (no cysteines) 15 μM): no reaction was observed
Reaction with ATG3 C1 (ATG3; ATG3 C1 (only active-site C264) 15 μM): excellent reactivity
Reaction with ATG3 ΔLIR (ATG3; ATG3 C1 ΔLIR (Δ95–111) 15 μM): no complex formation
Reaction with ATG3 C264A (ATG3; catalytically inactive ATG3 C264A 15 μM): loss of one ATG3–GABARAP band but did not abrogate additional bands for the complex
Reaction with Ube2K (Ube2K): did not react
Cross-linking with ATG3 D109 or T110 mutants (ATG3 C1 alanine variants; D109 or T110 to alanine, ATG3 C1 variant 15 μM): almost no effect on reaction efficiency
Cross-linking with ATG3 E95 and I97 mutants (ATG3 C1 alanine variants; E95 and I97 to alanine, ATG3 C1 variant 15 μM): severely diminish cross-linking
Cross-linking with ATG3 V108A (ATG3 C1 alanine variants; V108A, ATG3 C1 variant 15 μM, relative to ATG3 C1): significantly reduced the cross-linking efficiency
Cross-linking with ATG3 W107 mutant (ATG3 C1 alanine variants; W107A, ATG3 C1 variant 15 μM, relative to ATG3 C1): almost completely abrogated the reaction
Cross-linking with other ATG3 alanine mutants (ATG3 C1 alanine variants; majority of the other screened residues): at least some impact on the conjugation with GABARAP
